# Measurements reported in patent publication US20220304945A1, “METHODS OF TREATING METABOLIC SYNDROME RELATED CONDITIONS USING RETINOIC ACID RECEPTOR AGONISTS” (Cornell University, priority 2014, published 2022).
# Tests used:
# [1] = tested on: HF-fed C57/BL6 mice; experiment: Metabolic studies (body weight, GTT) in HF-fed wild type mice, 4 months; type: in vivo, mouse; conditions: obese HF-fed mice, 3.0 mg/100 ml drinking water
# Procedure: Mice, diet, and drug treatment. Dietary Obesity Studies: Wild type (wt) male C57/BL6 male mice were maintained on either a standard laboratory chow-fed diet (Con) with 13% kcal fat, (diet #5053, Lab Diet, Inc, St. Louis, Mo.) or a high fat, western style diet (HFD) with 45% kcals from fat, (diet #58126, Lab Diet, Inc., St. Louis, Mo.) for 4 months. […]
# Metabolic Measurements-Glucose tolerance was performed using an intraperitoneal glucose tolerance test (GTT) as previously described (Trasino et al., Vitamin A Deficiency Causes Hyperglycemia and Loss of Pancreatic β-Cell Mass, J Biol Chem. 2014 Dec. 1. pii: jbc.M114.616763). […] Tail vein blood glucose was measured at 20, 40, 60 and 120 minutes after injection using a FreeStyle Lite Blood Glucose Monitoring System (Abbott Diabetes Care, Inc. Alameda, Calif.). To determine insulin secretion responses to glucose, serum fractions were isolated between 0-60 minutes post glucose injections and insulin concentrations were measured using an Ultrasensitive Insulin ELISA Kit (Alpco, Inc. Salem, N.H.). Random blood glucose measurements were taken from tail veins of 4 mice per group at 2-3 random time points daily Means are expressed as±standard error of the mean (S.E.M) and P-values were calculated using one-way analysis of variance followed by Bonferroni post-hoc analysis.
# [2] = tested on: Ob/Ob and Db/Db mice; experiment: Metabolic studies (body weight, GTT, insulin secretion, ITT) in Ob/Ob and Db/Db mice, 8 weeks; type: in vivo, mouse; conditions: genetically obese and diabetic Ob/Ob and Db/Db mice
# [3] = tested on: HF-fed C57/BL6 mice; experiment: HF-fed mice treated 3 months: body weight, GTT, fasting glucose (Example 22); type: in vivo, mouse
# Procedure: METHODS. Preparation of RARβ agonists solution. AC261066 and AC55649 were dissolved in dimethyl sulfoxide (DMSO) at the concentration of 3.0 mg/ml and diluted in the drinking water for mice to the final concentration of 3.0-mg/100 ml. Mice, diet, and drug treatments. Wt male C57/BL6 male mice were maintained on either a standard laboratory chow-fed diet (Con) with 13% kcal fat, (diet #5053, Lab Diet, Inc, St. Louis, Mo., [n=4]) or a high fat, western style diet (HFD) with 45% kcals from fat, (diet #58126, Lab Diet, Inc., St. Louis, Mo.) for 3 months. Two weeks after the start of the HFD treatment, the HFD group was further split into 3 groups for 3 months: i) HFD and drinking water containing 1% DMSO (n=5); ii) high fat diet (HFD) and drinking water containing 3.0 mg/100 ml AC261066, a specific RARβ agonist (n=5) or iii) HFD and drinking water containing 3.0 mg/100 ml AC55649, a specific RARβ agonist (n=4). After 3 months the mice were tested for glucose intolerance with an intra-peritoneal glucose tolerance test (GTT). Mice were then sacrificed by cervical dislocation. Blood and various tissue samples were harvested.
# Glucose Tolerance Test (GTT). Glucose tolerance was performed using an intraperitoneal glucose tolerance test (GTT). Mice were fasted overnight (˜16 hrs) followed by intra-peritoneal injections (n=3-5 per group) of 50% glucose in PBS at 2.0 g of glucose/kg of body weight. Tail vein blood was collected at 15, 30, 45, 60, and 120 minutes post-injection for glucose measurements using a FreeStyle Lite Blood Glucose Monitoring System (Abbott Diabetes Care, Inc. Alameda, Calif.). Random and fasting blood glucose measurements were taken from tail veins of 4 mice per group at 2-3 random time points daily or just prior to GTT. Means are expressed as ±standard error of the mean (S.E.M) and P-values were calculated using one-way analysis of variance followed by Bonferroni post-hoc analysis. Grubbs' maximum normal residual test was used for detection of one or more outliers.
# [4] = target: T1, RARβ2 (Homo sapiens, UniProt P10826); conditions: as described in Lund et al. 2005; cited from earlier work
# T1 sequence (P10826 1-448 isoform P10826-2): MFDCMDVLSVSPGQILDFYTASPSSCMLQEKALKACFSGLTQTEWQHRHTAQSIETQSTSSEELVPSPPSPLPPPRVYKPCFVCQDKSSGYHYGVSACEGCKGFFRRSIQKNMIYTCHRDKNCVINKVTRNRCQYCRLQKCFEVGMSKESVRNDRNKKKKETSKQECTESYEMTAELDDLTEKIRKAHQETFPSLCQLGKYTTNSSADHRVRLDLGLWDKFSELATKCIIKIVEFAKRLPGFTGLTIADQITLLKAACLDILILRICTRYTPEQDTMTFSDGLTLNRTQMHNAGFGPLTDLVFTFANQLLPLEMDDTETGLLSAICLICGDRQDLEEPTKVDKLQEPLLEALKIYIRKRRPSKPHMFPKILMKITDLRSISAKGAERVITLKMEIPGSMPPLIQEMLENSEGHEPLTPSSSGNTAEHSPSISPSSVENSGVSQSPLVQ
smiles,measurement,setting,value
"CCCCCCCCc1ccc(-c2ccc(C(=O)O)cc2)cc1 [AC55649, 4′-Octyl-[1,1′-biphenyl]-4-carboxylic acid]",body weights,[1],significant reductions
same,body weights,[2],significant reductions
same,glucose tolerance and area under the curve glucose,[3],improved
same,overnight fasting glucose levels,[3],significant reductions
same,decrease in body weights compared to HF-fed mice,[3]; 3.0 mg/100 ml drinking water,~10%
same,isoform selectivity for the human RARβ2 receptors,[4],highly isoform-selective agonists
